In patent publication US11572353B2, “Alkynyl-substituted heterocyclic compound, preparation method therefor and medical use thereof” (BEIJING INNOCARE PHARMA TECH CO., LTD., priority 2016, dated 2023):

What was measured:
Assay type in all cases: biochemical
[1] = molecular target: human recombinant FGFR1 catalytic domain protein (amino acid 308-731) (Homo sapiens (Human), UniProt P11362); test: FGFR1 activity inhibition test (HTRF kinase assay); settings: 40 μM ATP
Procedure: (§1) The effect of the compounds of the present invention on the in vitro activity of FGFR was assessed by measuring the phosphorylation level of the substrate in a kinase reaction using the HTRF kinase assay kit (Table 1).
(§2) If the IC50 value of a compound is very low, the initial concentration of the compound can be lowered.
(§3) The IC50 value of the compound was calculated from the 10 concentration points using the XLfit software in Excel by the following formula: Y=Bottom+(Top−Bottom)/(1+10^((log IC50−X)*slope factor))
(§4) Where Y is the percentage of inhibition, Bottom is the bottom platform value of the S-curve, Top is the top platform value of the S-curve, X is the logarithm of the concentration of the compound to be tested, and slope factor is the slope coefficient of the curve.

[2] = molecular target: human recombinant FGFR3 catalytic domain protein (amino acid 399-806) (Homo sapiens (Human), UniProt P22607); test: FGFR3 activity inhibition test (HTRF kinase assay); settings: 90 μM ATP
human recombinant FGFR3 catalytic domain protein (amino acid 399-806), sequence (P22607 399-806): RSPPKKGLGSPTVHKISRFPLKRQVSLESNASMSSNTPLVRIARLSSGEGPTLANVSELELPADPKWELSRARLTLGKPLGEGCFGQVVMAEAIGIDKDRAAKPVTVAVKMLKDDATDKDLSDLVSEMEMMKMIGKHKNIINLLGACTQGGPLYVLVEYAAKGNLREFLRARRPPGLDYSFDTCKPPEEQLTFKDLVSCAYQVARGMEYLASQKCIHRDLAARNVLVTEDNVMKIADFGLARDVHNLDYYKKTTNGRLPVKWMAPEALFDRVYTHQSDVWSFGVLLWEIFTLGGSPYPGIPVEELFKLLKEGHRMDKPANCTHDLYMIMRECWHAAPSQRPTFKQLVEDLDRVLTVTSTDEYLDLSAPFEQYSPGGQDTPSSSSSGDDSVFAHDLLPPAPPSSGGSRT
Procedure: as §1, §2, §3, §4

[3] = molecular target: human recombinant FGFR4 catalytic domain protein (amino acid 460-802) (Homo sapiens (Human), UniProt P22455); test: FGFR4 activity inhibition test (HTRF kinase assay); settings: 90 μM ATP
human recombinant FGFR4 catalytic domain protein (amino acid 460-802), sequence (P22455 460-802): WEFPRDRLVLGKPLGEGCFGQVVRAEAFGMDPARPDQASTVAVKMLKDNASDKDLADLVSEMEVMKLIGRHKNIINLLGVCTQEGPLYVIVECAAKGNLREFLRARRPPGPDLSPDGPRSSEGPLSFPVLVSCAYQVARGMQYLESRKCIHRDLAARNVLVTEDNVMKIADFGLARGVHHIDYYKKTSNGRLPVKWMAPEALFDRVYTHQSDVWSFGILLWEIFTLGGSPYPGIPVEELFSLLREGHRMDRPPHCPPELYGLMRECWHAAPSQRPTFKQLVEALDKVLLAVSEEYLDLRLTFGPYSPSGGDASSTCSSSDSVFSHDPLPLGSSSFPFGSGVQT
Procedure: as §1, §2, §3, §4

[4] = molecular target: human recombinant FGFR2 catalytic domain protein (amino acid 400-821) (Homo sapiens (Human), UniProt P21802); test: FGFR2 activity inhibition test (HTRF kinase assay); settings: 50 μM ATP
human recombinant FGFR2 catalytic domain protein (amino acid 400-821), sequence (P21802 400-821): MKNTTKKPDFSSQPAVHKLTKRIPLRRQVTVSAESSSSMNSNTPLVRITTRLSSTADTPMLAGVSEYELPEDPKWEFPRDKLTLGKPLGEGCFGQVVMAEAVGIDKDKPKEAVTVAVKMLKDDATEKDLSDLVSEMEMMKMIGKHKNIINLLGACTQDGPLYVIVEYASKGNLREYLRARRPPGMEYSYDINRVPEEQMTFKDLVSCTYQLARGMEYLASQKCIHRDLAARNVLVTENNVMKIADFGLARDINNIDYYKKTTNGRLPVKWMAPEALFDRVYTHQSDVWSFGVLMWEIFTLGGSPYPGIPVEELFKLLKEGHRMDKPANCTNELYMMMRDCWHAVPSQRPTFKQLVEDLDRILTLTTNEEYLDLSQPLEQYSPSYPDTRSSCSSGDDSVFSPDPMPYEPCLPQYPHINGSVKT
Procedure: as §1, §2, §3, §4

human recombinant FGFR1 catalytic domain protein (amino acid 308-731), sequence (P11362 other isoform, or with tags, fused parts or gaps): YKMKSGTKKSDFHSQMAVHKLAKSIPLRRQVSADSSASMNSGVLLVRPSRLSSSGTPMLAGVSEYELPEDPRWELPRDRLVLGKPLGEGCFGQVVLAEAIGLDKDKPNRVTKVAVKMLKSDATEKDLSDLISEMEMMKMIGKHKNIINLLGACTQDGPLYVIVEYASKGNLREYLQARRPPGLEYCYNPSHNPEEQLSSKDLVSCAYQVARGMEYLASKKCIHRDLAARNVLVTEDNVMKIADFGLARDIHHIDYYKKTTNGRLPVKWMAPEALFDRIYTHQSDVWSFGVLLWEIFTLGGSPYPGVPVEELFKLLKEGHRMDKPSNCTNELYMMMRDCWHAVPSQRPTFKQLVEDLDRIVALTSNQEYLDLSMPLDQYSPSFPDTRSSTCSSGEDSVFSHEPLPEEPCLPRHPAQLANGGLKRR

Row | IC50 [1] | IC50 [2] | IC50 [3] | IC50 [4] | Compound
1 | 0.1 to 1 µM | 0.01 to 0.1 µM | 0.01 to 0.1 µM | 0.01 to 0.1 µM | C=CC(=O)N1CC(n2cc(C(N)=O)c(C#Cc3cc(OC)cc(OC)c3)n2)C1 [Compound 3, 1-(1-acryloylazetidin-3-yl)-3-((3,5-dimethoxyphenyl)ethynyl)-1H-pyrazole-4-carboxamide]
5 | 0.01 to 0.1 µM | < 0.01 µM | 0.01 to 0.1 µM | < 0.01 µM | C=CC(=O)N1CC[C@@H](n2nc(C#Cc3cc(OC)cc(OC)c3)c(C(N)=O)c2N)C1 [Compound 13, (R)-1-(1-acryloylpyrrolidin-3-yl)-5-amino-3-((3,5-dimethoxyphenyl)ethynyl)-1H-pyrazole-4-carboxamide]
6 | < 0.01 µM | < 0.01 µM | < 0.01 µM | < 0.01 µM | C=CC(=O)N1CC(n2nc(C#Cc3cc(OC)cc(OC)c3)c(C(N)=O)c2N)C1 [Compound 14, 1-(1-acryloylazetidin-3-yl)-5-amino-3-((3,5-dimethoxyphenyl)ethynyl)-1H-pyrazole-4-carboxamide]
11 | 0.01 to 0.1 µM | < 0.01 µM |  | < 0.01 µM | C=CC(=O)N1CC[C@H](n2nc(C#Cc3cc(OC)cc(OC)c3)c(C(N)=O)c2NC2CCN(C)CC2)C1 [Compound 34, (S)-1-(1-acryloylpyrrolidin-3-yl)-3-((3,5-dimethoxyphenyl)ethynyl)-5-((1-methylpiperidin-4-yl)amino)-1H-pyrazole-4-carboxamide]
